According to patent US8614218B2, “Fused bicyclic pyrimidines” (Bayer Intellectual Property GmbH, priority 2007, dated 2013):

test system: A549 cells; assay: Cellular proliferation/cytotoxicity assay (Alamar Blue), A549; format: cell-based; conditions: Homo sapiens, 72 h, Alamar Blue (Resazurin), read-out: Anti-proliterative/Cytotoxic activity (A549 cells)
Outline: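 OvCAR3 (10000 cells/well) or A549 (2000 cells/well) were dosed 24 h after seeding and exposed for 72 h at 37 °C, 5% CO2, in duplicate or more. Resazurin was added for 4 h and fluorescence read at 544/590 nm. Viability is relative to untreated 0.5% DMSO controls, with IC50 by non-linear regression.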

SMILES	IC50 [µM]
Cc1ccnc(-c2nc(C3CCN(Cc4ccc(-c5nc6nccn6cc5-c5ccccc5)cc4)CC3)n[nH]2)c1 [Example 35, 7-[4-({4-[5-(4-Methylpyridin-2-yl)-1H-1,2,4-triazol-3-yl]piperidin-1-yl}methyl)phenyl]-6-phenylimidazo[1,2-a]pyrimidine]	< 10
Brc1cnn2cc(-c3ccccc3)c(-c3ccc(CN4CCC(c5n[nH]c(-c6ccccn6)n5)CC4)cc3)nc12 [Example 31, 3-Bromo-6-phenyl-5-(4-{[4-(5-pyridin-2-yl-1H-1,2,4-triazol-3-yl)piperidin-1-yl]methyl}phenyl)pyrazolo[1,5-a]pyrimidine]	< 10
Fc1cnc2nc(-c3ccc(CN4CCC(c5n[nH]c(-c6ncccn6)n5)CC4)cc3)c(-c3ccccc3)cn12 [Example 25, 3-fluoro-6-phenyl-7-(4-{[4-(5-pyrimidin-2-yl-1H-1,2,4-triazol-3-yl)piperidin-1-yl]methyl}phenyl)imidazo[1,2-a]pyrimidine]	> 10
Fc1cnc2nc(-c3ccc(CN4CCC(c5n[nH]c(-c6cnccn6)n5)CC4)cc3)c(-c3ccccc3)cn12 [Example 24, 3-fluoro-6-phenyl-7-(4-{[4-(5-pyrazin-2-yl-1,2,4-triazol-3-yl)piperidin-1-yl]methyl}phenyl)imidazo[1,2-a]pyrimidine]	> 10
N#Cc1cnn2cc(-c3ccccc3)c(-c3ccc(CN4CCC(c5n[nH]c(-c6ccccn6)n5)CC4)cc3)nc12 [Example 32, 6-Phenyl-5-(4-{[4-(5-pyridin-2-yl-1H-1,2,4-triazol-3-yl)piperidin-1-yl]methyl}phenyl)pyrazolo[1,5-a]pyrimidine-3-carbonitrile]	> 10
C#Cc1cnn2cc(-c3ccccc3)c(-c3ccc(CN4CCC(c5n[nH]c(-c6ccccn6)n5)CC4)cc3)nc12 [Example 33, 3-Ethynyl-6-phenyl-5-(4-{[4-(5-pyridin-2-yl-1H-1,2,4-triazol-3-yl)piperidin-1-yl]methyl}phenyl)pyrazolo[1,5-a]pyrimidine]	< 10
CCc1nc2nc(-c3ccc(CN4CCC(c5n[nH]c(-c6ccccn6)n5)CC4)cc3)c(-c3ccccc3)cn2n1 [Example 40, 2-Ethyl-6-phenyl-5-(4-{[4-(5-pyridin-2-yl-1H-1,2,4-triazol-3-yl)piperidin-1-yl]methyl}phenyl)[1,2,4]triazolo[1,5-a]pyrimidine]	< 10
CCc1cnn2cc(-c3ccccc3)c(-c3ccc(CN4CCC(c5n[nH]c(-c6ccccn6)n5)CC4)cc3)nc12 [Example 34, 3-Ethyl-6-phenyl-5-(4-{[4-(5-pyridin-2-yl-1H-1,2,4-triazol-3-yl)piperidin-1-yl]methyl}phenyl)pyrazolo[1,5-a]pyrimidine]	< 10
Clc1cnn2cc(-c3ccccc3)c(-c3ccc(CN4CCC(c5n[nH]c(-c6ccccn6)n5)CC4)cc3)nc12 [Example 30, 3-Chloro-6-phenyl-5-(4-{[4-(5-pyridin-2-yl-1H-1,2,4-triazol-3-yl)piperidin-1-yl]methyl}phenyl)pyrazolo[1,5-a]pyrimidine]	< 10
CC(c1ccc(-c2nc3nccn3cc2-c2ccccc2)cc1)N1CCC(c2n[nH]c(-c3ccccn3)n2)CC1 (racemic) [Example 23, 6-phenyl-7-(4-{1-[4-(5-pyridin-2-yl-1H-1,2,4-triazol-3-yl)piperidin-1-yl]ethyl}phenyl)imidazo[1,2-a]pyrimidine]	> 10
Cc1cccc(-c2nc(C3CCN(Cc4ccc(-c5nc6nccn6cc5-c5ccccc5)cc4)CC3)n[nH]2)n1 [Example 36, 7-[4-({4-[5-(6-Methylpyridin-2-yl)-1H-1,2,4-triazol-3-yl]piperidin-1-yl}methyl)phenyl]-6-phenylimidazo[1,2-a]pyrimidine]	< 10
